The test system of one assay is WM-115. Description: Anchorage independent soft agar tumor growth assay. The class given is cell-based. Conditions: WM-115 skin melanoma, PTEN p.165fs*, No protein. How it is done: (§1) Cellular Assays—Cell Growth Inhibition Assay in PTEN Wild-Type or PTEN Deficient Tumor Cell Lines Twenty-two Phosphatase and Tensin Homolog (PTEN) wild-type or PTEN deficient tumor cell lines were cultured generally according to instructions supplied by cell culture supplier American Type Culture Collection, Manassas, Va., with 10% fetal bovine serum at 5% CO2 and 37° C. Cells were seeded into either a T-75 or a T-175 flask 3-4 days prior to 96-well assay plating such that the flasks were approximately 70-80% confluent of the time of harvest. Cells were harvested using 0.25% trypsin-EDTA (Invitrogen #25200056). Trypan Blue exclusion staining was used to determine cell number. Viable cells were plated in clear, flat bottom 96-well plates (BD #353075) under anchorage independent conditions at 2,000-10,000 cells per well depending on the cell line. To generate anchorage independent growth conditions, a 5% agar stock solution in water was made and autoclaved to melt and sterilize. From the 5% agar solution, a 0.6% agar/media+10% fetal bovine serum (FBS) solution was made to generate a bottom agar layer in the plates to prevent cell attachment. Seventy five microliters per well of the 0.6% agar-media solution was added to the plates. After solidification, a cell solution of 266,870 to 1, 334,022 cells (depending on the cell line) in 10 ml of 0.3% agar/media+10% FBS was made and 75 μl of the cell/media/agar suspension was added to the plates. After the cell layer solidified, 50 μl of media+10% FBS was added to the top of the cells. A 0.3% Brij 35 (Sigma B4184) solution in media+10% FBS was added to column 12 as a background subtraction control. The cells were incubated overnight at 5% CO2 and 37° C. The next day one plate of cells was processed at the time of compound addition to quantify the starting number of cells (T=0 or T0). […] Three hundred microliters of media was added to the compound dilutions. Ten microliters per well of the serial dilutions was added to the cells and the plates incubated for 6 days at 5% CO2 and 37° C. […] Following the 6-day incubation, 20 μl of Alamar Blue (Invitrogen # DAL1100) was added to the cells, incubated at 5% CO2 and 37° C. for 6 hours and the plates read on a Spectramax (Gemini EM) at 530 nm (excitation) and 590 nm (emission) with the auto cut-off disabled. For analysis of cell growth inhibition dose response curves, the data was plotted as the percent of the DMSO-treated control samples (DMSO samples set to 100%). […] Values from wells containing 0.3% Brij 35 (under anchorage independent conditions) were subtracted from all samples for background correction.

A further assay deals with HCC1395. Put plainly: Anchorage independent soft agar tumor growth assay. It counts as cell-based. The settings on record: HCC1395 breast carcinoma, PTEN p.N212fs*3, No protein. The method, then: as §1
The test system of a further assay is Colo205. Description: Anchorage independent soft agar tumor growth assay. The settings on record: Colo205 colon carcinoma, PTEN Wild-type. The class given is cell-based. The method, then:
as §1

Another assay relates to SW1783. Description: Anchorage independent soft agar tumor growth assay. It counts as cell-based. Conditions: SW1783 CNS glioblastoma, PTEN p.R233*, No protein. How it is done:
as §1

The next assay relates to HCT-116. Put plainly: Anchorage independent soft agar tumor growth assay. The class given is cell-based. The settings on record: HCT-116 colon carcinoma, PTEN Wild-type. The method, then: as §1
In a further assay the test system is BT549. Put plainly: Anchorage independent soft agar tumor growth assay. Conditions: BT549 breast carcinoma; PTEN p.V275fs*1, No protein; percent of DMSO-treated control. The class given is cell-based.
Another assay has as its system PC-3. Description: Anchorage independent soft agar tumor growth assay. It counts as cell-based, human. The settings on record: PC-3 prostate carcinoma, PTEN Loss, No protein. How it is done:
Cellular Assays—Cell Growth Inhibition Assay in PTEN Wild-Type or PTEN Deficient Tumor Cell Lines Twenty-two Phosphatase and Tensin Homolog (PTEN) wild-type or PTEN deficient tumor cell lines were cultured generally according to instructions supplied by cell culture supplier American Type Culture Collection, Manassas, Va., with 10% fetal bovine serum at 5% CO2 and 37° C. Cells were seeded into either a T-75 or a T-175 flask 3-4 days prior to 96-well assay plating such that the flasks were approximately 70-80% confluent of the time of harvest. Cells were harvested using 0.25% trypsin-EDTA (Invitrogen #25200056). Trypan Blue exclusion staining was used to determine cell number. Viable cells were plated in clear, flat bottom 96-well plates (BD #353075) under anchorage independent conditions at 2,000-10,000 cells per well depending on the cell line. To generate anchorage independent growth conditions, a 5% agar stock solution in water was made and autoclaved to melt and sterilize. […] The next day one plate of cells was processed at the time of compound addition to quantify the starting number of cells (T=0 or T0). […] Following the 6-day incubation, 20 μl of Alamar Blue (Invitrogen # DAL1100) was added to the cells, incubated at 5% CO2 and 37° C. for 6 hours and the plates read on a Spectramax (Gemini EM) at 530 nm (excitation) and 590 nm (emission) with the auto cut-off disabled. […]

The next assay deals with pAKT (pAKT/tAKT). Description: Pharmacodynamic effects in PC-3 xenograft tumors (MSD phospho/total AKT). It counts as in vivo, mouse. Conditions: 3 mg/kg or 10 mg/kg, 1, 2, 4, 6, 8, 10, and 24 hours. The method, then: Female nude mice (Charles River Laboratories, Wilmington, Del.; strain CD-1-Foxn1, 6 weeks of age) were injected subcutaneously with 2 million PC-3 (human prostate carcinoma) cells mixed 1:1 with Matrigel in the flank. Tumors were allowed to grow for approximately 5 weeks. […] The tumor was excised. Half of each tumor was immediately processed by Medicon (BD Catalog #340592) in 1 mL Meso-Scale Discovery (MSD) lysis buffer with protease inhibitors (Roche complete protease cocktail, cat #04 693 116 001) and phosphatase inhibitors (Sigma, cat # P2850 and P-5726) for 30-60 seconds and transferred to 1.5 mL Eppendorf tubes. Tubes remained on wet ice until they were centrifuged for 10 minutes at 4° C. at maximum speed in a tabletop refrigerated centrifuge. Tumor lysates were serially diluted in 96-well polypropylene plates on wet ice. Lysates (150 μL) were loaded in row 1; rows 2-12 were loaded with 75 μL of complete Meso Scale Discovery (MSD) lysis buffer (supplied in MSD kit; # […]-3). […] Plates were washed as described above, before the addition of 150 µL of MSD read buffer and read immediately on a 6000 MSD plate reader. […] P/T AKT was calculated as shown: (phospho AKT(Ser473) signal)/[(phospho AKT(Ser473) signal)+(total AKT signal)]. […] Percent inhibition was calculated for each group as follows: 100-[(sample P/T AKT value)/(vehicle P/T AKT value)]*100.

Setting [1] is: Homo sapiens, 144 h, 6-day incubation, Alamar Blue, read-out: Compound EC50 (nM) ± StDev.
The mark [2] stands for this setting: percent of DMSO-treated control.

From patent US10660898B2, “Benzimidazole derivatives as PI3 kinase inhibitors” (GLAXOSMITHKLINE LLC, priority 2010, dated 2020) come the findings set out here.

Broadly, the EC50 is the concentration giving half of the maximal effect. With `Cc1c(Cn2c(C)nc3c(C(=O)O)cc(N4CCOCC4)cc32)cccc1C(F)(F)F` [Example 31, 2-methyl-1-{[2-methyl-3-(trifluoromethyl)phenol]methyl}-6-(4-morpholinyl)-1H-benzimidazole-4-carboxylic acid], the EC50 with WM-115 (setting [1]) is 8 ± 3 nM; with HCC1395 (setting [1]), 114 ± 53 nM; in the assay with Colo205 (Homo sapiens, COLO 205, 144 h, 6-day incubation, Alamar Blue, read-out: Compound EC50 (nM) ± StDev), > 30700 nM; in the assay on SW1783 (setting [1]), 10 ± 3 nM; in the assay with HCT-116 (setting [1]) it was > 30700 nM; with PC-3 (setting [1]) it was 27 ± 12 nM. Moreover, the “Compound Ymin ± StDev” value with WM-115 (setting [2]) is 54 ± 14; with HCC1395 (setting [2]), 26 ± 9; in the assay on Colo205 (setting [2]) it was >80; in the assay with SW1783 (setting [2]), 69 ± 4; with HCT-116 (setting [2]), >80; in the assay with BT549 it was 52 ± 7. The “Compound Ymin ± StDev” value in the assay with PC-3 (setting [2]) is given as 82 ± 13. The “Inhibition of the pharmacodynamic marker pAKT (pAKT/tAKT)” value with pAKT (pAKT/tAKT) is “dose dependent inhibition”.
